Key:
[1] = Thiol pKa by UV/vis absorbance at 230 nm; assay type: physicochemical; conditions: Britton-Robinson Universal Buffer
Source text: Assay was completed by measuring the absorbance at 230 nm as described by Tajc et al. (J Am Chem Soc 2004, 126, 10508). Each reading was taken in triplicate and averaged in the respective pH Britton-Robinson Universal Buffer.

MDA-MB-231 cells [2] = assay: MTT cytotoxicity assay; assay type: cell-based, human
Experimental: FIG. 9. MTT assay to determine the cytotoxicity of NitroxylFluor at 4 μM over 3, 6, and 24 hours. Detailed protocol available on page 3 of this supporting information document.
A 96-well plate was seeded with 20,000 cells per well (200 μL of 150,000 cells/mL) and incubated at 37° C. with 5% CO2 for 24 h (˜70% confluent). […] After 3, 6, and 24 h the media was removed and replaced with […] 20:1 mixture of FBS-free DMEM and (3-(4,5-dimethylthiazol-2-yl)-2,5-diphenyl-tetrazolium bromide (MTT, 5 mg/mL stock in PBS). The cells were incubated for 4 h under the same conditions and then the medium was removed and replaced with DMSO ([…]). The absorbance of each well was recorded at 555 nm on a microplate reader. Viability was calculated by the absorbance relative to the vehicle control. Results pictured in FIG. 7.

[3] = Competition assays against thiols for HNO; conditions: 10 μM probe, Angeli's salt 200 μM
Experimental: FIG. 2. a) Fluorescence spectra of NitroxylFluor (2 μM) upon addition of AS (100 μM). b) Fluorescence kinetic trace of NitroxylFluor upon addition of 1 mM Angeli's salt, arrow indicates time of addition. c) Response of NitroxylFluor to various reactive oxygen, sulfur, and nitrogen species at concentrations of 100 μM (GSH was tested at 1 mM). Measurements were taken 15 minutes into treatment. d) Competition assays against various thiols. Control indicates no addition of Angeli's salt. […] (n=3).
In these experiments, 10 μM solutions of NitroxylFluor and various thiols such as L-cysteine (100 μM), N-acetyl-L-cysteine (100 μM), and GSH (1 mM) was treated with Angeli's salt (200 μM) (FIG. 2d).

MDA-MB-231 cells [4] = assay: Confocal imaging of HNO in living cells; assay type: cell-based, human
Experimental: FIG. 3. Confocal microscopy images acquired by irradiation of MDA-MB-231 cells treated with 0 μM (vehicle control), 250 μM, 500 μM, 1000 μM Angeli's salt for 15 mins at 25° C. with a 488 nm laser. Images taken through a 40× oil immersion objective. Scale bar represents 20 μm. b) Quantification of imaging data. *, p<0.05; ***, p<0.001; p<0.0001.
FIG. 8. Representative time course imaging of MDA-MB-231 cells stained with 4 μM NitroxylFluor for 15 minutes followed by replacement with fresh PBS with no probe. Angeli's salt (200 μM) was added 5 minutes after PBS was replaced. Images were taken through a 40× oil immersion objective at 0, 10, and 20 mins after AS addition at 25° C. via irradiation with a 488 nm laser. Scale bar represents 20 μm.
MDA-MB-231 adenocarcinoma cells were acquired from Prof. David J. Shapiro (Biochemistry, UIUC). Cells were cultured in phenol-red free Dulbecco's modified eagle medium (DMEM, Corning) supplemented with 10% fetal bovine serum (FBS, Sigma Aldrich), and 1% penicillin/streptomycin (Corning). Cells were incubated at 37° C. with 5% CO2. Experiments were performed in 8-well chambered cover glasses (Lab-Tek, Thermo Scientific).
An 8-well chambered cover glass was seeded with 0.4 mL of the above-mentioned cells at a density of 200,000 cells/mL. Cells were imaged at roughly 80% confluency (24 hours after seeding). Media was removed from each well and cells were washed with 200 μL PBS. The PBS was removed from the wells and replaced with 198 μL. 2 μL of 200 μM NitroxylFluor in PBS was added and gently stirred before being allowed to incubate at 37° C. with 5% CO2 for 15 minutes. PBS was then removed from the wells and replaced with 195 μL, 190 μL, or 180 μL PBS. The remaining volume to 200 μL was filled with 10 mM Angeli's salt in 10 mM KOH (or 10 mM KOH in the vehicle control) to give final concentrations of 0.250 mM, 0.500 mM, or 1 mM Angeli's salt. […] 3-5 images of each well were taken and their mean fluorescence (as reported by ImageJ) was averaged to give an average value for each well. […]

[5] = Selectivity against reactive oxygen, sulfur and nitrogen species
Experimental: (§1) FIG. 2. a) Fluorescence spectra of NitroxylFluor (2 μM) upon addition of AS (100 μM). b) Fluorescence kinetic trace of NitroxylFluor upon addition of 1 mM Angeli's salt, arrow indicates time of addition. c) Response of NitroxylFluor to various reactive oxygen, sulfur, and nitrogen species at concentrations of 100 μM (GSH was tested at 1 mM). Measurements were taken 15 minutes into treatment. d) Competition assays against various thiols. Control indicates no addition of Angeli's salt. Statistics are compared to the control. *, p<0.05; ***, p<0.001; p<0.0001. (n=3).
Angeli's salt was stored at −20° C. Stocks of Angeli's salt were added as a 10 mM solution in 10 mM KOH (for stability). […]
Hydroxyl radical was prepared by first preparing a 10 mM solution of Mohr's Salt (Fe(NH4)2(SO4)2.6H2O in 0.1 M HCl which was degassed by bubbling nitrogen gas for 20 minutes through the solution. A solution of the probe was made in buffer and degassed and the initial reading was taken. 10 μL of 10 mM Hydrogen Peroxide and Mohr's salt solution giving a final volume of 1 mL (100 μM hydroxyl radical) were added and allowed to incubate at 37° C. for the duration of the selectivity assay with a septum on the cuvette. Iron(II) was prepared via the same procedure as hydroxyl radical only hydrogen peroxide was not added. […]

[6] = Fluorescence turn-on response to HNO (Angeli's salt) in vitro
Experimental: as §1
(§2) FIG. 4. The normalized fluorescence turn-on response of NitroxylBlue-1, -2, and -3 treated with a vehicle control and incubated in PBS at 37° C. are shown in black. The normalized fluorescence turn-on response of NitroxylBlue-1, -2, and -3 treated with 100 μM Angeli's salt are shown in green. All data was taken 10 minutes after treatment. Statistical significance measured with respect to the corresponding control. *, p<0.05; **, p<0.01. (n=3).
Angeli's salt was stored at −20° C. Stocks of Angeli's salt were added as a 10 mM solution in 10 mM KOH (for stability). Hydrogen peroxide was added as a 10 mM stock solution prepared by diluting 30% hydrogen peroxide in deionized water. Superoxide was added as a 1 mM stock solution of potassium superoxide in DMSO (for stability). […]

[7] = reported value; cited from earlier work
[8] = Stability in aqueous media: background fluorescence turn-on with vehicle control; assay type: physicochemical; conditions: PBS
Experimental: as §2
FIG. 5. The normalized fluorescence turn-on response of S-methyl NitroxylBlue treated with vehicle control (black) or Angeli's salt (100 μM) and incubated in PBS at 25° C. All data was taken 15 minutes after treatment.

For COC(=O)C(C)(C)S [compound 16, Methyl 2-mercapto-2-methylpropanoate], the pKa [1] was 8.01.

In the case of CC(C)(S)C(=O)Oc1c(Cl)cc2c(c1Cl)Oc1cc(O)ccc1C21OCc2ccccc21 (stereo not shown) [NitroxylFluor], the “cytotoxicity (MTT) versus DMSO control” value (MDA-MB-231 cells [2]; 4 μM, 3, 6, and 24 hours, n=3) is reported as “No time point has significant difference from the DMSO control”, the “cytotoxicity (MTT)” value (MDA-MB-231 cells [2]; 10 μM probe, 3, 6, and 24 h) is reported as “Cytotoxicity at any time point was not observe” and the “fluorescent turn-on response in presence of GSH” value ([3]; GSH 1 mM) is reported as 3.9 fold. For the same compound, the “fluorescence increase in competition with L-cysteine” value ([3]; L-cysteine 100 μM) was 16.2 fold, the “fluorescence enhancement in competition with N-acetyl-L-cysteine” value ([3]; N-acetyl-L-cysteine 100 μM) was 9.8 fold and the “fluorescence enhancement at lowest Angeli's salt concentration” value (MDA-MB-231 cells [4]; 250 μM Angeli's salt, 15 mins) was “statistically significant enhancement”. For the same compound, the “fluorescence during time-lapse imaging” value (MDA-MB-231 cells [4]; 500 μM Angeli's salt, images every 1 min for 20 mins) was “gradual increase in the fluorescence”, the “fluorescence turn-on response in cells” value (MDA-MB-231 cells [4]; Angeli's salt 250 μM to 1000 μM, after 15 mins) was “dose-dependent fluorescence turn-on response” and the “change in fluorescence with reactive sulfur and nitrogen species” value ([5]; e.g. H2S, NO, 100 μM, 15-minute incubation at 37° C.) was “no change in fluorescence”. The cross-reactivity with oxidants ([5]; oxidants incl. H2O2, 100 μM, 15 minutes) was “not observed” and the “fluorescent turn-on response on reaction with HNO” value ([6]; NitroxylFluor 2 μM, Angeli's salt 100 μM, in a matter of seconds) was 16 fold.

For N[C@@H](CCC(=O)N[C@@H](CS)C(=O)NCC(=O)O)C(=O)O [GSH, glutathione], the “reported pKa” value [7] is listed as 9.42.

For CSC(C)(C)C(=O)Oc1ccc2c(C)cc(=O)oc2c1 [S-Methyl NitroxylBlue-2, reference compound], the “hydrolysis after incubation in aqueous media” value ([8]; 25° C., 15 minutes) was “No hydrolysis was observed”.

For Cc1cc(=O)oc2cc(OC(=O)C(C)(C)S)ccc12 [NB-2], the “background fluorescence turn-on (hydrolysis / alpha-thiolactonization)” value ([8]; vehicle control, 37° C., after 10 minutes) was 1.6 fold and the “fluorescence turn-on response with Angeli's salt” value ([6]; 100 μM Angeli's salt, PBS, 37° C., 10 minutes after treatment) was 3.5 fold.

Reference: patent publication US11339175B2, “Thiol-based fluorescent probe for reactive species” (The Board of Trustees of the University of Illinois, priority 2018, dated 2022)
